Reference: the supplement of paper PMC11451515

Test system: SEM cells
Assay: cell viability relative to DMSO control; higher = less cytotoxic
Settings: 48 h
Procedure, shortened: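 Viability was expressed as a per-plate percentage of DMSO wells, with cell-free wells as background. Leukemia cells (NOMO1 or SEM at 500 cells/well, P12-Ichikawa at 1000 cells/well) were adapted for at least four passages in each medium and seeded in 1536-well plates (5 μl). Library compounds in DMSO were pin-dosed over an 11-point threefold series from 47 μM to 0.79 nM, and CellTiter-Glo One luminescence was read after 48 h at 37°C.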

[1] = HPLM + 10% dialyzed FBS, 0.000781 µM
[2] = HPLM + 10% dialyzed FBS, 0.00234 µM
[3] = HPLM + 10% dialyzed FBS, 0.00702 µM
[4] = HPLM + 10% dialyzed FBS, 0.0211 µM
[5] = HPLM + 10% dialyzed FBS, 0.0632 µM
[6] = HPLM + 10% dialyzed FBS, 0.19 µM
[7] = HPLM + 10% dialyzed FBS, 0.569 µM
[8] = HPLM + 10% dialyzed FBS, 1.71 µM
[9] = HPLM + 10% dialyzed FBS, 5.12 µM
[10] = HPLM + 10% dialyzed FBS, 15.4 µM
[11] = HPLM + 10% dialyzed FBS, 46.1 µM
[12] = RPMI 5 mM glucose + 10% FBS, 0.000781 µM
[13] = RPMI 5 mM glucose + 10% FBS, 0.00234 µM
[14] = RPMI 5 mM glucose + 10% FBS, 0.00702 µM
[15] = RPMI 5 mM glucose + 10% FBS, 0.0211 µM
[16] = RPMI 5 mM glucose + 10% FBS, 0.0632 µM
[17] = RPMI 5 mM glucose + 10% FBS, 0.19 µM
[18] = RPMI 5 mM glucose + 10% FBS, 0.569 µM
[19] = RPMI 5 mM glucose + 10% FBS, 1.71 µM
[20] = RPMI 5 mM glucose + 10% FBS, 5.12 µM
[21] = RPMI 5 mM glucose + 10% FBS, 15.4 µM
[22] = RPMI 5 mM glucose + 10% FBS, 46.1 µM
[23] = RPMI 5 mM glucose + 10% dialyzed FBS, 0.000781 µM
[24] = RPMI 5 mM glucose + 10% dialyzed FBS, 0.00234 µM
[25] = RPMI 5 mM glucose + 10% dialyzed FBS, 0.00702 µM
[26] = RPMI 5 mM glucose + 10% dialyzed FBS, 0.0211 µM
[27] = RPMI 5 mM glucose + 10% dialyzed FBS, 0.0632 µM
[28] = RPMI 5 mM glucose + 10% dialyzed FBS, 0.19 µM
[29] = RPMI 5 mM glucose + 10% dialyzed FBS, 0.569 µM
[30] = RPMI 5 mM glucose + 10% dialyzed FBS, 1.71 µM
[31] = RPMI 5 mM glucose + 10% dialyzed FBS, 5.12 µM
[32] = RPMI 5 mM glucose + 10% dialyzed FBS, 15.4 µM
[33] = RPMI 5 mM glucose + 10% dialyzed FBS, 46.1 µM

SMILES | cell viability [1] [%] | cell viability [2] [%] | cell viability [3] [%] | cell viability [4] [%] | cell viability [5] [%] | cell viability [6] [%] | cell viability [7] [%] | cell viability [8] [%] | cell viability [9] [%] | cell viability [10] [%] | cell viability [11] [%] | cell viability [12] [%] | cell viability [13] [%] | cell viability [14] [%] | cell viability [15] [%] | cell viability [16] [%] | cell viability [17] [%] | cell viability [18] [%] | cell viability [19] [%] | cell viability [20] [%] | cell viability [21] [%] | cell viability [22] [%] | cell viability [23] [%] | cell viability [24] [%] | cell viability [25] [%] | cell viability [26] [%] | cell viability [27] [%] | cell viability [28] [%] | cell viability [29] [%] | cell viability [30] [%] | cell viability [31] [%] | cell viability [32] [%] | cell viability [33] [%]
Cc1cc(SCc2sc(-c3ccc(C(F)(F)F)cc3)nc2C)ccc1OCC(=O)O | 98.4 | 102 | 98.3 | 113 | 102 | 109 | 113 | 105 | 99.3 | 48.9 | 98.4 | 94.3 | 101 | 89.4 | 102 | 102 | 105 | 100 | 104 | 114 | 57.5 | 93.5 | 99.9 | 101 | 96.1 | 97 | 109 | 92.5 | 102 | 109 | 99.4 | 48.3 | 97.9
C[C@@H](NCc1cc2ccccc2[nH]1)c1cccc2ccccc12 | 80 | 80.5 | 86.2 | 83.3 | 77.7 | 107 | 89.7 | 95.9 | 89.2 | 89.7 | 41.9 | 84.1 | 86.6 | 87.2 | 90.3 | 74.5 | 92.2 | 97.5 | 84.4 | 92.9 | 85.9 | 39.5 | 90 | 84.1 | 86 | 82.9 | 71.7 | 101 | 93.3 | 93 | 93.1 | 85.6 | 57.9
O=[S+]([O-])(O)c1ccc2cc(/N=N/c3cc([S+](=O)([O-])O)c4cccnc4c3O)ccc2c1 | 115 | 120 | 120 | 28.8 | 133 | 132 | 126 | 117 | 120 | 119 | 39.9 | 115 | 124 | 113 | 17.8 | 115 | 114 | 121 | 112 | 103 | 105 | 25.5 | – | – | – | – | – | – | – | – | – | – | –
NC(=O)c1cnc(-c2ccc(C3(N)CCC3)cc2)c(-c2ccccc2)c1 | 110 | 120 | 137 | 111 | 111 | 127 | 133 | 90.7 | 73.2 | 50.3 | 30.9 | 120 | 134 | 123 | 106 | 108 | 127 | 130 | 85.1 | 78 | 43.2 | 24.5 | 121 | 125 | 127 | 120 | 123 | 120 | 133 | 91.5 | 67 | 43.5 | 35.9
CC(=O)Oc1cc2c(s1)CCN(C(C(=O)C1CC1)c1ccccc1F)C2.Cl (configuration not stated) | 84.3 | 102 | 103 | 113 | 115 | 112 | 110 | 122 | 120 | 101 | 68.5 | 71.3 | 96.9 | 88.7 | 96.7 | 90.8 | 101 | 94.2 | 100 | 101 | 82.1 | 53.3 | 76.1 | 106 | 103 | 111 | 107 | 114 | 110 | 117 | 115 | 78.6 | 54.4
CC(C)C(=O)Nc1ncc(-c2cc(C(F)F)nn2-c2c(Cl)cccc2Cl)s1 | 109 | 117 | 120 | 121 | 130 | 121 | 133 | 146 | 124 | 114 | 48.7 | – | – | – | – | – | – | – | – | – | – | – | 102 | 114 | 140 | 130 | 124 | 132 | 138 | 142 | 134 | 126 | 57.5
CC1=CC=C2\N=C/3N(CC[C@@]3(O)C(=O)C2=C1)C4=CC=CC=C4 | 89.5 | 88.6 | 97.7 | 87.3 | 94.5 | 93 | 96.6 | 95 | 70.5 | 85.8 | 93 | 119 | 120 | 98.3 | 120 | 108 | 121 | 97 | 94.9 | 92.4 | 117 | 107 | 86.8 | 83.2 | 85.6 | 95.7 | 92.6 | 76.6 | 101 | 78.3 | 70.8 | 87.2 | 94.5
CN[C@H]1[C@H](O[C@@H]2[C@H](O[C@@H]3[C@@H](O)[C@@H](O)[C@@H](NC(=N)N)[C@@H](O)[C@H]3NC(=N)N)O[C@H](C)[C@@]2(O)C=O)O[C@@H](CO)[C@@H](O)[C@H]1O | 93.2 | 89.9 | 79.7 | 80.2 | 79.9 | 82.2 | 83.7 | 57 | 83.3 | 82.1 | 78.6 | 95.1 | 116 | 119 | 114 | 114 | 110 | 104 | 44.8 | 103 | 85.6 | 99.3 | 109 | 103 | 118 | 114 | 117 | 114 | 109 | 80.4 | 103 | 111 | 101
